Earlier results in US4878891A, “Method for eradicating infectious biological contaminants in body tissues” (Baylor Research Foundation, priority 1987, dated 1989).

Tests used:
[1] = system: cutaneous T-cell lymphoma; conditions: oral; blood fraction exposed to ultraviolet A
malignant tumors = conditions: patients given large doses; ultraviolet light
tumor = conditions: injected; several types of tumor induced in mice

Cc1cn([C@H]2C[C@H](N=[N+]=[N-])[C@@H](CO)O2)c(=O)[nH]c1=O [3-deoxy-3'-azidothymidine (AZT), 3-deoxy-3'-azidothymidine]
preventing the proliferation of tumor cells (tumor cells): totally ineffective

COc1c2occc2cc2ccc(=O)oc12 [8-methoxypsoralen]
control of cutaneous T-cell lymphoma activity [1]: could be controlled

CC[C@]1(O)C[C@H]2CN(CCc3c([nH]c4ccccc34)[C@@](C(=O)OC)(c3cc4c(cc3OC)N(C=O)[C@H]3[C@@](O)(C(=O)OC)[C@H](OC(C)=O)[C@]5(CC)C=CCN6CC[C@]43[C@@H]65)C2)C1 [Vincristine]
treatment of viral diseases (viral diseases): ineffective

CC1=C(CCC(=O)O)c2cc3[nH]c(cc4nc(cc5[nH]c(cc1n2)c(C)c5C(C)O)C(C)=C4C(C)O)c(C)c3CCC(=O)O (centres unmarked) [hematoporphyrin]
red fluorescence in malignant tumors (malignant tumors): red fluorescence | localization in tumors (tumor): localized and fluoresced in several types of tumor
